Experimental data from ChEMBL document CHEMBL3525920, “CYP4F enzymes are responsible for the elimination of fingolimod (FTY720), a novel treatment of relapsing multiple sclerosis” (Drug Metab Dispos, 2011).
Each block holds one molecule with its values, some of them ahead of it.

Legend:
Cytochrome P450 4F2 [1] = molecular target: T1, Cytochrome P450 4F2 (Homo sapiens, UniProt P78329); test: Inhibition of human recombinant CYP4F2 assessed as fingolimod metabolism; assay type: ADME
T1 sequence (P78329 whole entry): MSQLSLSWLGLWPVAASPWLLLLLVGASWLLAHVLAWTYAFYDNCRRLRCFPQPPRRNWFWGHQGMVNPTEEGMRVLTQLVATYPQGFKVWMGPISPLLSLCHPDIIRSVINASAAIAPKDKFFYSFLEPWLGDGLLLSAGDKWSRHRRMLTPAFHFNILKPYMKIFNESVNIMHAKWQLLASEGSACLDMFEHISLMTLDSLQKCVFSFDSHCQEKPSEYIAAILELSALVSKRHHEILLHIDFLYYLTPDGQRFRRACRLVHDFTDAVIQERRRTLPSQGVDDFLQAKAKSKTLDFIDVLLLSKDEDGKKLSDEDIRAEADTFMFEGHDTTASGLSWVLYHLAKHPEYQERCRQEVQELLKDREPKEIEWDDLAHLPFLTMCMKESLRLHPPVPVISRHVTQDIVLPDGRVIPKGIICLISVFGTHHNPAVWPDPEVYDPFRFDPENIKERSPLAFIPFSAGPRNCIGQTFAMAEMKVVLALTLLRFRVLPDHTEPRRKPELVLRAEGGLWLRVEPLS

Cytochrome P450 4F2 [2] = molecular target: T1, Cytochrome P450 4F2; test: Inhibition of human CYP4F2 in human liver microsomes assessed as fingolimod metabolism; assay type: ADME
[3] = Retention time of the compound by long gradient-based HPLC-RA analysis; assay type: physicochemical
[4] = Retention time of the compound by symmetry C18 column based LC-MS analysis; assay type: physicochemical
[5] = Retention time of the compound by C18 advantage armor column based LC-MS analysis; assay type: physicochemical
Cytochrome P450 4F3 = Cytochrome P450 4F3 (Homo sapiens, UniProt Q08477); test: Activity at human recombinant CYP4F3B expressed in baculovirus-infected BTI-TN-5B1-4 insect cell microsomes assessed as relative abundance of compound formation treated with [14C]fingolimod at 100 uM after 30 mins by HPLC-RA analysis; assay type: ADME; details: bti-tn-5b1-4, 0.5 h
Sequence of Cytochrome P450 4F3 (Q08477 whole entry): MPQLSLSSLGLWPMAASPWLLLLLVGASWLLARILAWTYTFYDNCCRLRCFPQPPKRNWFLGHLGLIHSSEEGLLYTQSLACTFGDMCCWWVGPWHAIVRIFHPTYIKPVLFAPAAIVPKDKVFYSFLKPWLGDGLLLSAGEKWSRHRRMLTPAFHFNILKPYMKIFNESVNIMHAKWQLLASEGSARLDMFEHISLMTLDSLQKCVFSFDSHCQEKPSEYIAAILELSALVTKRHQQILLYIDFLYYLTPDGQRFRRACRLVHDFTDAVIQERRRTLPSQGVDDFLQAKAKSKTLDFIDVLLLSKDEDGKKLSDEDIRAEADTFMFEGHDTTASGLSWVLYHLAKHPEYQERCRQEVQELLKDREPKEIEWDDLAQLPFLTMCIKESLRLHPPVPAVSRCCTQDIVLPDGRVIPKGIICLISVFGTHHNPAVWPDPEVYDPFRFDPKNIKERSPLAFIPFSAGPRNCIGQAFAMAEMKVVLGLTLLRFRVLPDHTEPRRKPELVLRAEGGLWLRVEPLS

Cytochrome P450 4F2 [6] = molecular target: T1, Cytochrome P450 4F2; test: Activity at human recombinant CYP4F2 expressed in baculovirus-infected BTI-TN-5B1-4 insect cell microsomes assessed as relative abundance of compound formation treated with [14C]fingolimod at 100 uM after 30 mins by HPLC-RA analysis; assay type: ADME; details: bti-tn-5b1-4, 0.5 h
Cytochrome P450 2D6 = Cytochrome P450 2D6 (Homo sapiens, UniProt P10635); test: Activity at human recombinant CYP2D6 expressed in baculovirus-infected BTI-TN-5B1-4 insect cell microsomes assessed as relative abundance of compound formation treated with [14C]fingolimod at 20 uM after 30 mins by HPLC-RA analysis; assay type: ADME; details: bti-tn-5b1-4, 0.5 h
Sequence of Cytochrome P450 2D6 (P10635 whole entry): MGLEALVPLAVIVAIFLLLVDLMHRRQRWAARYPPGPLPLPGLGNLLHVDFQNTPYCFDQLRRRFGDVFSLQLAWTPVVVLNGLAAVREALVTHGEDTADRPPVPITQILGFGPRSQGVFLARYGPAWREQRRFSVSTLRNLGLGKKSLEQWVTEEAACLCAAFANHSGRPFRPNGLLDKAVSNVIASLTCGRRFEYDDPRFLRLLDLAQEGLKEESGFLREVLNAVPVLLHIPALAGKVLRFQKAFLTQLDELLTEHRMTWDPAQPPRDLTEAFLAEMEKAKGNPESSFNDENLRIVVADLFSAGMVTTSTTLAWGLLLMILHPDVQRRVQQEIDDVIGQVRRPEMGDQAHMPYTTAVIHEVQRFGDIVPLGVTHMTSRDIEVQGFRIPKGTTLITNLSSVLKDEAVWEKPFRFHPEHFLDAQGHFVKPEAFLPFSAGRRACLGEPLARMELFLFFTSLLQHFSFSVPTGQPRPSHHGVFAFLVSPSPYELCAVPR

[7] = Terminal half life in human; assay type: ADME, organism-based; set-up: dosed compound name Fingolimod; details: in vivo, read-out: beta t1/2 (converted)
[8] = substrate: CCCCCCCCc1ccc(CCC(N)(CO)CO)cc1; test: Activity at human recombinant CYP4F2 expressed in baculovirus-infected BTI-TN-5B1-4 insect cell microsomes assessed as metabolite formation after 15 mins by Eadie-Hofstee plot analysis; assay type: ADME

Molecule: CC(=O)N1CCN(c2ccc(OCC3COC(Cn4ccnc4)(c4ccc(Cl)cc4Cl)O3)cc2)CC1 (stereo unspecified) [KETOCONAZOLE]
- IC50 (Cytochrome P450 4F2 [1]): 1600 nM
- Ki (Cytochrome P450 4F2 [2]): 740 nM

- Retention_time [3]: 34.7 min
- Retention_time [4]: 32.1 min
- Retention_time [5]: 35.4 min
- Compound recovery (Cytochrome P450 4F3): 0.84%
- Compound recovery (Cytochrome P450 4F2 [6]): 2.99%
- Compound recovery (Cytochrome P450 2D6): 1.02%
Molecule: NC(CO)(CO)CCc1ccc(CCCCCCCCO)cc1

- half-life [7]: 120 h
Molecule: CCCCCCCCc1ccc(CCC(N)(CO)CO)cc1 [FINGOLIMOD]

B1: Cytochrome P450 4F2 (Homo sapiens) (protein)
chain: T1 sequence (P78329 whole entry)
- Km [8]: 45 µM
- Vmax [8]: 0.00105 µmol/min
